In series [1] the target is BACE-1 (Homo sapiens (Human), UniProt P56817). Kind of series: BACE-1 Cellular Assay (Aβ in HEK293-APPswe/lon cells). In kind it is cell-based. Particulars: 4 hours. The method in brief: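 HEK293 cells stably expressing human APP with Swedish and London FAD mutations, cultured at 37° C., 5% CO2. Aβ40 or Aβ42 in conditioned media measured by electrochemiluminescent ELISA (WO2 capture; G2-10 or G2-11 detection). IC50 from variable-slope sigmoidal fit of signal versus compound concentration.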
BACE-1, sequence (P56817 46-501): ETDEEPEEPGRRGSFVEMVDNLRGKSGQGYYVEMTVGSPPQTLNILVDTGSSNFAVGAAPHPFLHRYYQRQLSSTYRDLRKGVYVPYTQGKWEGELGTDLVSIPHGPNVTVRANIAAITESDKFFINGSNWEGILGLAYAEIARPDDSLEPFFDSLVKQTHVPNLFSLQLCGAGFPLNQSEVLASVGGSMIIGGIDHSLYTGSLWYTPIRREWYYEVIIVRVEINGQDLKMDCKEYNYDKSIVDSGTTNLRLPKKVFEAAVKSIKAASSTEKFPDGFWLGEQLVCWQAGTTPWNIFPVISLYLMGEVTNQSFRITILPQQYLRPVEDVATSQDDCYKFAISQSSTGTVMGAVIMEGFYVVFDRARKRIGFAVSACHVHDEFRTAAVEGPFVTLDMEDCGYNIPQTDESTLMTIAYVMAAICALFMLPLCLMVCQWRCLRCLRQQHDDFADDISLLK

Series [2] relates to CSF Aβ40. Description: Aβ Reduction In Vivo (rat CSF Aβ40). The note with it: male CD IGS rats, 10 mg/kg oral gavage, CSF at 3 hours, change vs vehicle. The protocol:
Assay 5: Aβ Reduction In Vivo
The in vivo efficacy and/or potency of BACE inhibitors (test compounds) can be evaluated using a variety of animal models, including mouse, rat, dog, and monkey, and these animals can be wild type, transgenic, or gene knockout animals.
Generally, animals are administered (by oral gavage, intravenous injection, or by other suitable route) a test compound in doses ranging from, for example, 0.1 mg/kg (mg of compound per kg of animal body weight) to 100 mg/kg formulated in vehicles, such as cyclodextrin, phosphate buffer, hydroxypropyl methylcellulose or other suitable vehicles. One to twenty-four hours following the administration of compound, animals are sacrificed, and tissues (for example, brain, cerebrospinal fluid (CSF), and/or plasma) are collected for analysis of Aβ levels and/or test compound concentrations (Dovey et al., 2001, Journal of Neurochemistry, 76, 173-181). Tissue samples are processed appropriately and then analyzed for the presence of Aβ by specific sandwich ELISA assays based on electrochemiluminescence (ECL) technology.
For example, in the following assay for which data are reported below, male CD IGS rats (body weight approximately 120 g, Charles River Laboratories, Kingston, N.Y.) were used to assess lowering of CSF levels of Aβ1-40 (Aβ40) in the presence of compounds of the invention. At time 0, animals were administered by oral gavage a test compound at a dose of 10 mg/kg in 20% hydroxypropyl-β-cyclodextrin (dosing volume 5 mL/kg). A separate group of animals received 20% hydroxypropyl-β-cyclodextrin alone to serve as the vehicle control group. Three hours after administration, the rats were euthanized with excess CO2. Immediately following euthanasia, CSF was collected from the cisterna magna and quickly frozen on dry ice. Samples were stored at −80° C. until quantification of Aβ40 levels.
The measurement of endogenous rat Aβ40 in CSF relied on the 585 antibody (Ab585, BioSource, NONO585), which specifically recognizes the N-terminal sequence of rodent Aβ40, and on the monoclonal antibody, G2-10, which specifically recognizes the free C-terminus of Aβ40. Ab585 was labeled with biotin (b-Ab585) by first dialyzing the antibody sample extensively versus PBS (pH 7.8) to remove impurities, followed by dilution to between 1 and 2 mg/mL protein concentration. EZ-Link Sulfo-NHS-LC-Biotin (Pierce) was dissolved in PBS (pH 7.8) at a concentration of 1 mg/mL immediately prior to use. Ab585 was labeled with EZ-Link Sulfo-NHS-LC-biotin using a 10:1 biotin:antibody ratio by incubation at room temperature for 1 hour. The labeling reaction was quenched by addition of 1.0 M glycine to a final concentration of 0.1 M followed by 10 minute incubation at room temperature. Glycine was removed by extensive dialysis versus PBS.
For rat CSF Aβ40 determinations, a calibration curve of various concentrations of synthetic rodent Aβ40 was assayed in parallel with rat CSF samples in duplicate using an avidin-coated 96-well MSD plate (Mesoscale Diagnostics). Either 50 μL of rodent Aβ40 standards diluted in PBS (pH 7.4) supplemented with 1% BSA and 1% Tween-20 (standard diluent buffer) or 40 μL of standard diluent buffer plus 10 μL rat CSF were added to each 96 well avidin-coated plate. To each well was added 50 μL of 0.1 M HEPES (pH 7.5), 2% BSA, 2% Tween-20, 0.3 M NaCl (2×Aβ40 buffer) supplemented with the b-Ab585 capture and ruthenylated-G2-10 detection antibodies diluted to 1 μg/mL and 0.5 μg/mL, respectively. Plates were shaken for 1 min on a microplate shaker, covered to protect from light and incubated overnight (˜16 h) at 4° C. For detection, plates were first washed twice with 100 μL of 1×CSF Aβ40 buffer followed by addition of 160 μL of 1×MSD read buffer-T (Mesoscale Diagnostics) diluted in 1×CSF Aβ40 buffer. Plates were read on a MSD Sector Imager 2400 model (Mesoscale Diagnosotics). […]

For series [3], the target named is rat Mdr1a (P-gp) (Rattus norvegicus, UniProt Q6PSM0). Kind of series: P-Glycoprotein (P-gp) Efflux Susceptibility Assay. Type of series: in vitro ADME. The note with it: LLC-PK1, pH 7.4; rat LLC-Mdr1a cells, B-A/A-B Papp ratio at 3 h; method 0.1 μM; read-out: P-gp efflux assay (rMDR1a BAAB). How it is done: Assay 6: P-Glycoprotein (P-Gp) Efflux Susceptibility Assay
rat Mdr1a (P-gp), sequence (Q6PSM0 1-1272): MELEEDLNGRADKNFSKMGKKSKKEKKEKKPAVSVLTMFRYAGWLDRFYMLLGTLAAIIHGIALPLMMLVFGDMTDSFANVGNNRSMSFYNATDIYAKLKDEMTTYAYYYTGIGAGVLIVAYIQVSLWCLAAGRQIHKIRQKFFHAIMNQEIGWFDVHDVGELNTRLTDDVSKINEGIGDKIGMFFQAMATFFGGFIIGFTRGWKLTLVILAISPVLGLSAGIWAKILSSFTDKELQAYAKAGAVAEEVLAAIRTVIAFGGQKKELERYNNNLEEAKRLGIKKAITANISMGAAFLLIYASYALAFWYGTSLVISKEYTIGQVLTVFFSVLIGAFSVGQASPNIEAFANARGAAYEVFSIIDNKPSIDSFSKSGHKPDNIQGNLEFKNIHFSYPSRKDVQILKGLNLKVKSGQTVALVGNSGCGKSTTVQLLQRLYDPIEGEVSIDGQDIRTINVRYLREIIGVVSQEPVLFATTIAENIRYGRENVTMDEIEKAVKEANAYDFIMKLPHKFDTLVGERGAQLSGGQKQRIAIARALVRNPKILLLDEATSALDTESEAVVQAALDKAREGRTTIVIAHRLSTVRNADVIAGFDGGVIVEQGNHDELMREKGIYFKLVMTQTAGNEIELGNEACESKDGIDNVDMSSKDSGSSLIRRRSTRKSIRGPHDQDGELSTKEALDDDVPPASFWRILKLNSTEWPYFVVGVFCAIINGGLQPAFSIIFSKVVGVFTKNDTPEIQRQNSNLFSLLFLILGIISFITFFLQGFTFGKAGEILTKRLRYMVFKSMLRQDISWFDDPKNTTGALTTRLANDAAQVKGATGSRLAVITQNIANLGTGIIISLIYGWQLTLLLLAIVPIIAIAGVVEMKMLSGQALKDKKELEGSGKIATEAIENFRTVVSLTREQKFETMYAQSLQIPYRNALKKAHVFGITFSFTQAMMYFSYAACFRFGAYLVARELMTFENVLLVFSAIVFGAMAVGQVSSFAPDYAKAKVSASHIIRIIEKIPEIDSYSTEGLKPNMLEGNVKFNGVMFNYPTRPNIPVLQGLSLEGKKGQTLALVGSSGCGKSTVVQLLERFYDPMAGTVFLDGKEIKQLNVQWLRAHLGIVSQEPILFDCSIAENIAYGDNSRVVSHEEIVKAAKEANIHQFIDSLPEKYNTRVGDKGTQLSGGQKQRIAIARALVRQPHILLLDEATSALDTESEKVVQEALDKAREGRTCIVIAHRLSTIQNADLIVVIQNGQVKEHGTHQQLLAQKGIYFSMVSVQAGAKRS
As P-gp is expressed at the blood-brain-barrier, among other tissues, lower P-gp efflux ratio values are associated with a better ability to cross the blood-brain-barrier to reach the site of BACE-1 expression in the central nervous system. P-gp efflux ratios are measured in cellular assays using cell lines that express P-gp from a number of species including rat, monkey, and human. The following assay was used to measure the rat P-gp efflux ratios, which are believed to be the most sensitive measure of P-gp susceptibility, for the compounds of the invention (test compounds) reported in the tables below.
The bidirectional transport of test compounds was conducted across pig kidney epithelial (LLC-PK1) cell monolayers. Native LLC-PK1 cells were obtained from The Netherlands Cancer Institute (Amsterdam, The Netherlands), and used under a license agreement. LLC-PK1 cells expressing a cDNA encoding rat Mdr1a (rat LLC-Mdr1a) were made in-house by stable transfection of LLC-PK1 cells with a rat MDR1 cDNA. LLC-PK1 and rat LLC-Mdr1a cell lines were cultured in 96-well transwell culture plates. […] Substrate solution (150 μL) was added to either the apical (A) or the basolateral (B) compartment of the culture plate, and buffer (150 μL; HBSS, 10 mM HEPES, pH 7.4) was added to the compartment opposite to that containing the compound. At t=3 h, 50 μL samples were removed from both sides of monolayers dosed with test compound and placed in 96 well plates, internal standard (50 μL 1 μM labetolol) was added to the samples. Samples were analyzed by LC/MS/MS using an Applied Biosystems SCIEX API 5000 triple quadruple mass spectrometry (Concord, ON, Canada) with a TurbolonSpray ion source in the positive ion mode. A Thermo Scientific Transcend LX-2 system (Franklin, Mass.) was coupled to the API 5000 with a flow rate of 800 μL/min to direct sample into the mass spectrometer. A Waters ACQUITY UPLC T3 (2×30 mm, 1.7 μm; Milford, Mass.) column was used for sample analysis. Mobile phase A consisted of 0.1% formic acid in water. Mobile phase B was acetonitrile with 0.1% formic acid. A gradient elution program was utilized where the solvent composition was held at 5% B for 0.25 min, changed from 5% B to 95% B at 0.25 min, and followed by holding at 95% B for 0.5 min, then, went back to 5% B at 0.75 min. The column was then re-equilibrated at the original solvent composition for 0.5 min. Mass spectrometric detection was accomplished by multiple reaction monitoring (MRM) of transitions unique to each compound. Sample concentration was obtained by extrapolation from the standard curve. Verapamil (1 μM) was used as the positive control to assess the functional activity of Pgp. The experiment was performed in triplicate.
The Papp was calculated by the following formula for samples taken at t=3 h:
[formula] where “Volume of Receptor Chamber” is 0.15 mL, “Area of membrane” is 0.11 cm^2, the “Initial Concentration” is the sum of the concentration measured in the donor compartment plus the concentration measured in the receiver compartment at t=3 h, “Δ in Concentration” is the concentration in the receiver compartment at 3 h, and “Δ in Time” is the incubation time (3×60×60=10800 s). Papp was expressed as 10^−6 cm/s.
The Papp reported in the table below is the average of the Papp for transport from A to B and Papp for transport from B to A at t=3 hr.
The B-A/A-B ratio (BAAB) was calculated by dividing the Papp from B to A by the Papp from A to B at t=3 h: […]

The target in series [4] is soluble human BACE-1 catalytic domain (Homo sapiens (Human), UniProt P56817). Kind of series: BACE-1 Ki Assay (BACE-1 HTRF FRET Assay). The note with it: Assay 1; Ki calculated from IC50 by Cheng-Prusoff. Type of series: biochemical. The method in brief: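 Recombinant human BACE-1 catalytic domain (3 nM in 10 μl) preincubated with inhibitor 30 min at 30° C, pH 5.0 acetate buffer with 7.5% DMSO, then 200 nM final QSY7-APPswe-Eu substrate for 1.5 h; 620 nm time-resolved fluorescence read. IC50 from nonlinear regression converted to Ki by Cheng-Prusoff using Km 8 μM.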
soluble human BACE-1 catalytic domain, sequence (P56817 75-416): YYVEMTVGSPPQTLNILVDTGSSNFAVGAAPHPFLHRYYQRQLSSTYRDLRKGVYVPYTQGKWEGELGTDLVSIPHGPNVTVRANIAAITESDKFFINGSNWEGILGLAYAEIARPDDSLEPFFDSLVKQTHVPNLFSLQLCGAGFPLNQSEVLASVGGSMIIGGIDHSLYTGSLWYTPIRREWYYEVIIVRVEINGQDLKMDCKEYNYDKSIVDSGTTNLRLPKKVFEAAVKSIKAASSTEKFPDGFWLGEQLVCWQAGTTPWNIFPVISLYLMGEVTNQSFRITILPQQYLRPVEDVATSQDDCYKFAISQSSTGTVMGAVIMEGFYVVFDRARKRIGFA

Series [5] deals with purified human autoBACE-2 (Homo sapiens (Human), UniProt Q9Y5Z0). Kind of series: BACE-2 Assay (BACE-HTRF assay). Type of series: biochemical. The note with it: Assay 2; Ki calculated from IC50 by Cheng-Prusoff; read-out: BACE2 Ki. The gist of the method:
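Purified human autoBACE-2 (1 nM final) pre-incubated 30 min at 30° C with compounds in 20 mM sodium acetate pH 5.0, 10% glycerol, 0.1% Brij-35, 5% DMSO final; endpoint HTRF cleavage of QSY7/Eu FRET peptide, read at 620 nm (320 nm excitation). IC50 by sigmoidal regression of normalized data; Ki by Cheng-Prusoff.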

Series [6] concerns the target purified human Cathepsin-D (Homo sapiens (Human), UniProt P07339). Description: Cathepsin-D Assay (time-resolved FRET).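 Note: Europium-labelled peptide substrate with QSY7 quencher, cleavage read as 620 nm fluorescence after 30 min preincubation then 30 min reaction at 30 °C, pH 5.0, inhibition lowers signal.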 In kind it is biochemical. The note with it: Assay 4; Ki calculated from IC50 by Cheng-Prusoff.
The subject of series [7] is HepG2 cells. Description: In Vitro Phospholipidosis Assay. Type of series: cell-based. The note with it: 20 μM, 24 hours, normalized to DMSO. The text has this:
[formula] Assay 7: In Vitro Phospholipidosis Assay
Drug-induced phospholipidosis (PL) is characterized by intracellular accumulation of phospholipids with lamellular bodies, and may result from impaired phospholipid metabolism in the lysosome (Anderson et al., 2006, FEBS Letter, 580, 5533-5540), and many compounds known to cause drug-induced PL are also associated with adverse drug reactions. Using a method described in the literature (Bhandari et al., 2008, Assay and Drug Dev. Tech., 6(3), 407-419), an in vitro cellular assay can provide data that can determine the PL potential of test compounds. In this assay, compounds that lower values for mean inclusion count of a fluorescent phospholipid (described below) versus control are associated with reduced potential for PL.
HepG2 cells were dispensed into 96-well collagen I coated plates at an initial density of 2.0×10^5 cells in 200 μL complete culturing medium (MEM Media w/Earle's Balanced Salt Solution supplemented with 10 IU penicillin, 10 μg/mL streptomycin, and 10% heat inactivated fetal bovine serum). Cells were incubated overnight at 37° C. with 5% CO2, 89% humidity prior to treatment.
A solution of fluorescently labeled phospholipid N-(7-nitrobenz-2-oxa-1,3-diazol-4-yl)-1,2-dihexadecanoyl-sn-glycero-3-phosphoethanolamine (NBD-PE) was prepared at a concentration of 10 mM in absolute ethanol. Dissolution of the NBD-PE was facilitated by sonication in a room temperature water bath for 30 minutes. NBD-PE medium was prepared by diluting NBD-PE stock to a final concentration of 50 μM in complete culturing medium, filtering (pore size, 0.22 μm) prior to use.
Compound treatment stocks were prepared in dimethyl sulfoxide at 500× final concentrations. Working treatment solutions were prepared by diluting compound stocks into NBD-PE medium with DMSO serving as the vehicle control. Treatment concentration was 20 μM. Amiodarone ((2-{4-[(2-butyl-1-benzofuran-3-yl)carbonyl]-2,6-diiodophenoxy}ethyl)diethylamine) served as the assay positive control at the same concentration. All treatments were tested in triplicate for 24 hours.
Following treatment, cultures were rinsed once with Hank's Balanced Salt Solution (HBSS) containing no phenol red. Cultures were then incubated for 30 minutes at 37° C. with […] Hoechst 33342 nuclear stain and […] cell tracker orange cytoplasm stain. After incubation, cells were rinsed once with HBSS and then fixed in 2% formalin solution.
Cultures were imaged using the IN Cell Analyzer 2000 imaging system. One set of images were acquired with the 4× objective using the appropriate Hoechst filter settings to acquire a full-well cell count. Another set of images were acquired to evaluate treatment-related phospholipidosis with the 20× objective.
Images were analyzed using custom algorithms created in the IN Cell Workstation software using NBD-PE inclusion count in the cell cytoplasm as and endpoint associated with phospholipidosis. Data were expressed as fold over control, normalized to the DMSO vehicle control response.

Each structure is given as a SMILES string.

purified human autoBACE-2, sequence (Q9Y5Z0 63-466): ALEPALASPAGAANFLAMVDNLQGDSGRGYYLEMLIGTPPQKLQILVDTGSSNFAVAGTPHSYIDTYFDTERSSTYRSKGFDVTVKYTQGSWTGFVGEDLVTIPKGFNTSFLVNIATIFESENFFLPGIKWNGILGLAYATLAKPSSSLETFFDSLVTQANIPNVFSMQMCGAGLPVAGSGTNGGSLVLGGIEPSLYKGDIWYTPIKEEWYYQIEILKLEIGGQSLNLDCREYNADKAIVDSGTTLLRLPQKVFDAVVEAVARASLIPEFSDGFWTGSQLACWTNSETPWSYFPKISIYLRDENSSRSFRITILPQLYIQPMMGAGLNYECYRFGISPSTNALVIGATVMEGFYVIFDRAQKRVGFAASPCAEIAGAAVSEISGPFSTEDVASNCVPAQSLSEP
purified human Cathepsin-D, sequence (P07339 65-412): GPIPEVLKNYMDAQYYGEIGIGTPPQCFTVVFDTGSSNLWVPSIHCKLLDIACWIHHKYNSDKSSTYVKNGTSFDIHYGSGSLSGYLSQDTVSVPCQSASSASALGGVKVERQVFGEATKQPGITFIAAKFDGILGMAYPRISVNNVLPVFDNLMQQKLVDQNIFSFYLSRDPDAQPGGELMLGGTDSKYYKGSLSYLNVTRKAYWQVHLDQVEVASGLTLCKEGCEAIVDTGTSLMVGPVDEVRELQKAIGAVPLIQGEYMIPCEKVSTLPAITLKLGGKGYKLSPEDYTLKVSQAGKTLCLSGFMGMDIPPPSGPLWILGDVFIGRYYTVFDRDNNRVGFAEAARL

As a reminder, the IC50 is the concentration needed to halve the response being measured. Read a high IC50 as lower potency. In turn, `C[C@@]1(c2cc(Nc3nccc4cc(C#N)cnc34)ccc2F)CS(=O)(=O)[C@@](CF)(C2CC2)C(N)=N1` [Example 1, 8-({3-[(3R,6S)-6-cyclopropyl-6-(fluoromethyl)-5-imino-3-methyl-1,1-dioxidothiomorpholin-3-yl]-4-fluorophenyl}amino)-1,7-naphthyridine-carbonitrile] showed an IC50 in series [1] of 24 nM. The “Aβ reduction in vivo in rat (Δ% CSF Aβ40 @ 10 mpk)” value in series [2] is −58%. Moreover, the efflux ratio at 3 h in series [3] amounted to 6.1.

The term Ki denotes the dissociation constant of the complex between target and ligand, obtained from inhibition or displacement. With `COc1cnc2c(Nc3ccc(F)c([C@]4(C)CS(=O)(=O)[C@@](CF)(C5CC5)C(N)=N4)c3)nccc2c1` [Example 7, N-{3-[(3R,6S)-6-cyclopropyl-6-(fluoromethyl)-5-imino-3-methyl-1,1-dioxidothiomorpholin-3-yl]-4-fluorophenyl}-3-methoxy-1,7-naphthyridin-8 amine], the Ki in series [4] is 7.1 nM; in series [5] it was 3.6 nM; in series [6], 1120 nM. In series [1], this compound gave an IC50 of 132 nM. In series [7], the “In Vitro Phospholipidosis Assay: Mean NBD-PE Inclusion Count (Fold over control)” value is listed as 1.9 Fold over control.
